{"source": "ChEMBL document CHEMBL3132769", "about": "“Fragment growing to retain or alter the selectivity of anchored kinase hinge-binding fragments” (Medchemcomm, 2014)", "key": {"[1]": {"biological_target": "Serine/threonine-protein kinase MARK2 (Homo sapiens) (UniProt Q7KZI7)", "sequence (Q7KZI7 whole entry)": "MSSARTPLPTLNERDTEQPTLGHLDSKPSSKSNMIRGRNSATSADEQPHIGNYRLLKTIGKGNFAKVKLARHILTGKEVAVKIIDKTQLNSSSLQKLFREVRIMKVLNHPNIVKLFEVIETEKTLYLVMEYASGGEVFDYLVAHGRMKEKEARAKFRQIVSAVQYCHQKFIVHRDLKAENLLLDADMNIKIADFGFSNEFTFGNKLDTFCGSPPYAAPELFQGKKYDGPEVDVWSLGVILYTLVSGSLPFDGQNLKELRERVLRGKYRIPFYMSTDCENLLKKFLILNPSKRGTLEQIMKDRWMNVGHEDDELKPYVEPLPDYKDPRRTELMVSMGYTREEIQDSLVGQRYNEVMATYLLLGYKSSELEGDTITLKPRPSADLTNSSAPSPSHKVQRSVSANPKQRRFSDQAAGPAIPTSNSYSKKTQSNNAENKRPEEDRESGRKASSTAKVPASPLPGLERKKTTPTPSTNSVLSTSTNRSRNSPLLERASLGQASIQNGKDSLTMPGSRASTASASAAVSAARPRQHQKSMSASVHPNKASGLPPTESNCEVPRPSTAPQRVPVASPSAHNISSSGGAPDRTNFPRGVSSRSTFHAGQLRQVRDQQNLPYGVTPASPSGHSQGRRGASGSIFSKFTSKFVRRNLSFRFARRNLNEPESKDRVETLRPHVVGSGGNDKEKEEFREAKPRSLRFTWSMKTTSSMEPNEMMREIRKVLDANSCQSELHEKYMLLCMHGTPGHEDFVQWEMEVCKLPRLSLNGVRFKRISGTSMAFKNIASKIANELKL", "assay": "Inhibition of human full length MARK2 expressed in baculovirus assessed as substrate phosphorylation using fluorescence-labelled peptides as substrate at 8 uM after 90 mins by microfluidic peptide phosphorylation assay"}, "[2]": {"biological_target": "Fibroblast growth factor receptor 2 (Homo sapiens) (UniProt P21802)", "sequence (P21802 22-821 limits assumed)": "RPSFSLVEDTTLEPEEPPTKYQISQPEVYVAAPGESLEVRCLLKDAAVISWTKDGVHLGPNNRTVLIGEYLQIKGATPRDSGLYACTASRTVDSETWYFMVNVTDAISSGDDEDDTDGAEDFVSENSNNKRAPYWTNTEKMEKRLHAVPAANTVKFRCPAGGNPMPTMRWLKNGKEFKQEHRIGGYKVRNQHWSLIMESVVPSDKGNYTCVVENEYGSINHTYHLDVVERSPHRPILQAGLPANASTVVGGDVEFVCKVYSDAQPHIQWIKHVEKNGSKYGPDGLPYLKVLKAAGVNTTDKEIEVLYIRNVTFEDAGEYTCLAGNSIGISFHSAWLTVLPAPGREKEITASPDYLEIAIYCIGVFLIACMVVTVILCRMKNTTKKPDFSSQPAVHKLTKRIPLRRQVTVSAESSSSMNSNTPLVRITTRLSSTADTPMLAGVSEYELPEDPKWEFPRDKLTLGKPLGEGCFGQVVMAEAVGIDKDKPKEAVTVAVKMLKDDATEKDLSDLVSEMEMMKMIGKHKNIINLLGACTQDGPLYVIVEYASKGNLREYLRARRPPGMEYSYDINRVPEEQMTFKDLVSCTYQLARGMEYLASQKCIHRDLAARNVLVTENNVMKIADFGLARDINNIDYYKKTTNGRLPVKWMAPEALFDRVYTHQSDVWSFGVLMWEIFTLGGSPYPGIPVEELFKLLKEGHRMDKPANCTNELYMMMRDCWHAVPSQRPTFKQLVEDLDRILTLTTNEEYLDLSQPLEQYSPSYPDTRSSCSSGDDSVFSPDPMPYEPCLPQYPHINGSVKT", "assay": "Inhibition of human FGFR2 catalytic domain expressed in baculovirus assessed as substrate phosphorylation using fluorescence-labelled peptides as substrate at 0.06 uM after 90 mins by microfluidic peptide phosphorylation assay"}, "[3]": {"biological_target": "T1, Serine/threonine-protein kinase D3 (Homo sapiens) (UniProt O94806)", "T1 sequence (whole entry)": "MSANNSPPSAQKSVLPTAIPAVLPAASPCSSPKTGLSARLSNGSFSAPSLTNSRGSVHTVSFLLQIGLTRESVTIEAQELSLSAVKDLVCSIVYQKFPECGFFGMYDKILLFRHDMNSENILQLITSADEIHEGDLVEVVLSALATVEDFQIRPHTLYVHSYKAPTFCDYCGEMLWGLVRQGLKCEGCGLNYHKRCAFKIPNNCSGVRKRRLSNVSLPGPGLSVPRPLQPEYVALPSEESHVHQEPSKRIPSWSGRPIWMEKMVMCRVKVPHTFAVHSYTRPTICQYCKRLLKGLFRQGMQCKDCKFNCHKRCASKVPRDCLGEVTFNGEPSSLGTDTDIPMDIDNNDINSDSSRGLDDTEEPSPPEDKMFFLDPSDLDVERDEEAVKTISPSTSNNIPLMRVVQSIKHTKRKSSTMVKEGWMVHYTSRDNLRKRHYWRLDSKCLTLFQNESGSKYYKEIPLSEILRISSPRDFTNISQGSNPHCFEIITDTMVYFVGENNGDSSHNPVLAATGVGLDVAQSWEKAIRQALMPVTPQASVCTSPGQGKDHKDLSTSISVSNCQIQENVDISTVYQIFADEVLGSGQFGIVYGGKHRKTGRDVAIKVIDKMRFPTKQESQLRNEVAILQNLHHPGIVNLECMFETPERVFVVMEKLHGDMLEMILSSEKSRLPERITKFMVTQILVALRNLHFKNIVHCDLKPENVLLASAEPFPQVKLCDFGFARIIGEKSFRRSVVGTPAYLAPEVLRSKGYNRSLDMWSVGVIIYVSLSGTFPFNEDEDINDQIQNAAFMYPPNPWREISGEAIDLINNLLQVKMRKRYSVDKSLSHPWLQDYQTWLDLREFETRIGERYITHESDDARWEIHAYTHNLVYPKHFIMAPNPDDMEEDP", "assay": "Inhibition of human full length PKD3 expressed in baculovirus assessed as substrate phosphorylation using fluorescence-labelled peptides as substrate at 0.06 uM after 90 mins by microfluidic peptide phosphorylation assay"}, "[4]": {"biological_target": "T2, cGMP-dependent protein kinase 1 (Homo sapiens) (UniProt Q13976)", "T2 sequence (whole entry)": "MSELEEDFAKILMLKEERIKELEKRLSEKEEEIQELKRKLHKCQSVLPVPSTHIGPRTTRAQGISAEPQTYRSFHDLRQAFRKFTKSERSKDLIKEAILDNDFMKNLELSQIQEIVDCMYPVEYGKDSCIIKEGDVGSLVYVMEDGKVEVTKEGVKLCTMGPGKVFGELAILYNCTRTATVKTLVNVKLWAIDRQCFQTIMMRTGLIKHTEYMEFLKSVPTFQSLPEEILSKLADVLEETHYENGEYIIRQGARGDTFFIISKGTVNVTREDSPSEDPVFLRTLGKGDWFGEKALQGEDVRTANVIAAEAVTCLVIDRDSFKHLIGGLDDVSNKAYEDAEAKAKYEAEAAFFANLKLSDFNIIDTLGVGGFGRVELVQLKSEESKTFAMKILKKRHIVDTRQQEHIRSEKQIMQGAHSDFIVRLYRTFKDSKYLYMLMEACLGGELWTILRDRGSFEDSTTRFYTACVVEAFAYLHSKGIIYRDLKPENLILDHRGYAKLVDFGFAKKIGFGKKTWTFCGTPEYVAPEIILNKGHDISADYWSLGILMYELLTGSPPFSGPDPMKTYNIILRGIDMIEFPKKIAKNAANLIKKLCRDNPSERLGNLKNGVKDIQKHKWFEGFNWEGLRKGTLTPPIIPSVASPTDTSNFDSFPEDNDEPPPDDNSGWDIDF", "assay": "Inhibition of human full length PKG-1a expressed in baculovirus assessed as substrate phosphorylation using fluorescence-labelled peptides as substrate at […] after 90 mins by microfluidic peptide phosphorylation assay"}, "[5]": {"biological_target": "T3, Cytoplasmic tyrosine-protein kinase BMX (Homo sapiens) (UniProt P51813)", "T3 sequence (whole entry)": "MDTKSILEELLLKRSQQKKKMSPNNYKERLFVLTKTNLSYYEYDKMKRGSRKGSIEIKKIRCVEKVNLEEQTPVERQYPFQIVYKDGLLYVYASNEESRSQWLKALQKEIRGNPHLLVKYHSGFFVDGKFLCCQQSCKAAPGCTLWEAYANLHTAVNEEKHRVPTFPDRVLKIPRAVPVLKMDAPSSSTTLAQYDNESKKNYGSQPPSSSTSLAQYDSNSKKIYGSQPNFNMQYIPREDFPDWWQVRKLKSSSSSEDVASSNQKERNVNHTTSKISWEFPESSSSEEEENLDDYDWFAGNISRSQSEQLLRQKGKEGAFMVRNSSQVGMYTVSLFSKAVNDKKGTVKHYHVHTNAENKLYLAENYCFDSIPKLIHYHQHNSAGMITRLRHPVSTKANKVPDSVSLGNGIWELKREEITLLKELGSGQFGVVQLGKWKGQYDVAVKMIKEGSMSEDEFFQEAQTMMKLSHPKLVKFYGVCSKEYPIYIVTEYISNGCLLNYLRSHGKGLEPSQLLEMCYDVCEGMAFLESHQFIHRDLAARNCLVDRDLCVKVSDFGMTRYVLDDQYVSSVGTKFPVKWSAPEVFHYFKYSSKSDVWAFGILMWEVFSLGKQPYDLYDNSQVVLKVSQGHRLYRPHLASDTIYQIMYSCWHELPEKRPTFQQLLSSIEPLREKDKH", "assay": "Inhibition of human full length BMX expressed in baculovirus assessed as substrate phosphorylation using fluorescence-labelled peptides as substrate at 0.1 uM after 90 mins by microfluidic peptide phosphorylation assay"}, "[6]": {"biological_target": "MAP/microtubule affinity-regulating kinase 3 (Homo sapiens) (UniProt P27448)", "sequence (P27448 whole entry, looked up)": "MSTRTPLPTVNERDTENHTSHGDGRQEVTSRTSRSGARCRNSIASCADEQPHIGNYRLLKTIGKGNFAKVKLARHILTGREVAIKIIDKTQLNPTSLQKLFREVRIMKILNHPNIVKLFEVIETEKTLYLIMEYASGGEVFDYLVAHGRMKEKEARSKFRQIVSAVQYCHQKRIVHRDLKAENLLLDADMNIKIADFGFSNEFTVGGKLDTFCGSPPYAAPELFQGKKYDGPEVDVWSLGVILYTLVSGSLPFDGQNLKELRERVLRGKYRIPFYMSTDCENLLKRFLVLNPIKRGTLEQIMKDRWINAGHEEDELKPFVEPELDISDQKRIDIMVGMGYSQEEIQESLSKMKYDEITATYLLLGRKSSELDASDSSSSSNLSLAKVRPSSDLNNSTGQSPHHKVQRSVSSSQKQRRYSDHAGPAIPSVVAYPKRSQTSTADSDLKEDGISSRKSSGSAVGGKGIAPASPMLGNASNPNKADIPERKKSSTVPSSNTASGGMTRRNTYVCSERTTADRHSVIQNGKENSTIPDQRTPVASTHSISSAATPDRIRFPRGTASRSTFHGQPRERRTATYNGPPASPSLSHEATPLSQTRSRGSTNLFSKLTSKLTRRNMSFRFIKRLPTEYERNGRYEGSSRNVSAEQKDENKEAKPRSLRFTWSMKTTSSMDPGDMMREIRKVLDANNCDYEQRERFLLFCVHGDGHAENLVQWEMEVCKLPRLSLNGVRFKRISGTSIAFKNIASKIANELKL", "assay": "Inhibition of human full length c-TAK1 expressed in Escherichia coli cell assessed as substrate phosphorylation using fluorescence-labelled peptides as substrate at 1000 uM after 90 mins by microfluidic peptide phosphorylation assay"}, "[7]": {"biological_target": "Fibroblast growth factor receptor 4 (Homo sapiens) (UniProt P22455)", "sequence (P22455 22-802 limits assumed)": "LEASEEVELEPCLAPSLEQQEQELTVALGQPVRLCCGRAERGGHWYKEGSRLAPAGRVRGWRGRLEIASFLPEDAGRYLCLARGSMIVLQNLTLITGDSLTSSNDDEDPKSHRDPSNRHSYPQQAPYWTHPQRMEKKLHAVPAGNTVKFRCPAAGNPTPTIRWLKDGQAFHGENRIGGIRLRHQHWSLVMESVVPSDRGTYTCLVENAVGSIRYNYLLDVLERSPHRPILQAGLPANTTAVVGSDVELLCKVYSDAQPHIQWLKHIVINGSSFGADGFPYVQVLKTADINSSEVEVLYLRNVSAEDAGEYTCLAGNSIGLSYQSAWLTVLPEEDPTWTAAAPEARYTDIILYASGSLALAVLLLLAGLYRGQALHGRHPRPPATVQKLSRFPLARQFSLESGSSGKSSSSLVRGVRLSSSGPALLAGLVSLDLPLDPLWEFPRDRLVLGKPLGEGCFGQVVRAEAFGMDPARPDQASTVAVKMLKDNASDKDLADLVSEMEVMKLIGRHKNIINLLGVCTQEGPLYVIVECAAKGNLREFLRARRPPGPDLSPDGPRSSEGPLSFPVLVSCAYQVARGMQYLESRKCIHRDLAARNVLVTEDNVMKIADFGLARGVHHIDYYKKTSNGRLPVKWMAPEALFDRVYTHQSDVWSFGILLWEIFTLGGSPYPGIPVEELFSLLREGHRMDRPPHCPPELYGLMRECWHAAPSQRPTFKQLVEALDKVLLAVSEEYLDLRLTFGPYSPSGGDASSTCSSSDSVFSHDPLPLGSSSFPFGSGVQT", "assay": "Inhibition of human FGFR4 catalytic domain expressed in baculovirus assessed as substrate phosphorylation using fluorescence-labelled peptides as substrate at 1000 uM after 90 mins by microfluidic peptide phosphorylation assay"}, "[8]": {"biological_target": "Tyrosine-protein kinase HCK (Homo sapiens) (UniProt P08631)", "sequence (P08631 2-526 limits assumed)": "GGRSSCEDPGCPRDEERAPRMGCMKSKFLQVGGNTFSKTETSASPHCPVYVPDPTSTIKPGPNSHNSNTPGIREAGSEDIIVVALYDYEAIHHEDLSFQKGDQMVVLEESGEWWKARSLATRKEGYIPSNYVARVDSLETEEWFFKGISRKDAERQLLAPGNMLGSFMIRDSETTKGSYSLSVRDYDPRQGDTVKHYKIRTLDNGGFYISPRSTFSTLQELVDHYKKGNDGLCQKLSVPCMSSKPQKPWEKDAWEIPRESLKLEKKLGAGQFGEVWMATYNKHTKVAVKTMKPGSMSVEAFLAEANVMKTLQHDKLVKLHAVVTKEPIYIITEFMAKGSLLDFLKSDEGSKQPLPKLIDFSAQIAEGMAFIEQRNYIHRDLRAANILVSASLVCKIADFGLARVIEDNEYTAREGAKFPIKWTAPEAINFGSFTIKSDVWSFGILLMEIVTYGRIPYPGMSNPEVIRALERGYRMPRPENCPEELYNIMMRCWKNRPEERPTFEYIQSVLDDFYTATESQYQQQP", "assay": "Inhibition of human HCK catalytic domain expressed in baculovirus assessed as substrate phosphorylation using fluorescence-labelled peptides as substrate at 1000 uM after 90 mins by microfluidic peptide phosphorylation assay"}}, "data": [{"smiles": "NCC1CCN(c2ncnc3[nH]ccc23)CC1", "values": [{"measurement": "inhibition", "setting": "[1]", "result": 37, "unit": "%"}]}, {"smiles": "NC1(Cc2ccc(Cl)cc2)CCN(c2ncnc3[nH]ccc23)CC1", "values": [{"measurement": "inhibition", "setting": "[2]", "result": 0, "unit": "%"}, {"measurement": "inhibition", "setting": "[3]", "result": 0, "unit": "%"}]}, {"smiles": "COC(=O)c1cnc(Nc2cnc(C#N)cn2)cc1NCC1CCNCC1", "values": [{"measurement": "inhibition", "setting": "[4]", "result": 4.5, "unit": "%"}]}, {"smiles": "C[C@H](CN(C)C)Oc1nc(Nc2cc3cccc(Cl)c3cn2)cnc1C#N", "values": [{"measurement": "inhibition", "setting": "[5]", "result": 3, "unit": "%"}]}, {"smiles": "c1cnc2[nH]ccc2c1", "values": [{"measurement": "inhibition", "setting": "[6]", "result": 77, "unit": "%"}, {"measurement": "inhibition", "setting": "[7]", "result": 28.5, "unit": "%"}, {"measurement": "inhibition", "setting": "[8]", "result": 30, "unit": "%"}]}]}
